Legend:
[1] = target: T1, Tumour suppressor p53/oncoprotein Mdm2 (Homo sapiens, UniProt Q00987); assay: Inhibition of HDM2/p53 interaction in human HCT-116 cells expressing p53RE/Bla incubated for 16 hrs by beta-lactamase reporter gene assay; format: cell-based
[2] = Selectivity index, ratio of IC50 for inhibition of HDM2/p53 interaction in human HCT-116 cells expressing p53/Bla to IC50 for inhibition of N-terminal thioredoxin-His6 tagged HDM2 (17 to 125 residues)/p53 protein-protein interaction (unknown origin); format: cell-based
[3] = Lipophilicity, logD of the compound at pH 7 by RP-HPLC analysis; format: physicochemical; conditions: buffer
[4] = Unbound clearance in dog; format: ADME, Canis lupus familiaris; conditions: in vivo
[5] = Mean residence time in dog; format: ADME, Canis lupus familiaris; conditions: in vivo
[6] = system: HCT-116; assay: cells; conditions: Homo sapiens, HCT-116, 72 h
[7] = target: T1, Tumour suppressor p53/oncoprotein Mdm2; assay: Inhibition of N-terminal thioredoxin-His6 tagged HDM2 (17 to 125 residues)/p53 protein-protein interaction (unknown origin) incubated for 2 hrs by TR-FRET assay
[8] = Unbound clearance in rat; format: ADME; conditions: in vivo
[9] = Mean residence time in rat; format: ADME; conditions: in vivo
[10] = Bioavailability in rat; format: ADME, organism-based; conditions: in vivo
[11] = Bioavailability in dog; format: ADME, organism-based, Canis lupus familiaris; conditions: in vivo

T1 sequence (P04637 whole entry, the tested form may be a part): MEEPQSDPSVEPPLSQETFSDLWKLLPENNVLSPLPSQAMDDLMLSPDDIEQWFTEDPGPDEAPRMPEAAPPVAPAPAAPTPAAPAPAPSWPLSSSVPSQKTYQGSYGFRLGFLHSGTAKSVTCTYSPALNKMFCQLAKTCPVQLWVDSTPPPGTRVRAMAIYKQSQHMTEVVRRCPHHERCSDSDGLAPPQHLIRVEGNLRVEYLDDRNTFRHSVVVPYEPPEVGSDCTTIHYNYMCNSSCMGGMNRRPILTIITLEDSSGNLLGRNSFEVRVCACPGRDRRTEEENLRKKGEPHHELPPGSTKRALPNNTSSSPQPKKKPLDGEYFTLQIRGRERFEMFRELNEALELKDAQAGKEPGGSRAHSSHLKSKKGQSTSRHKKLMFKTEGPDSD
T1 sequence (Q00987 whole entry, the tested form may be a part): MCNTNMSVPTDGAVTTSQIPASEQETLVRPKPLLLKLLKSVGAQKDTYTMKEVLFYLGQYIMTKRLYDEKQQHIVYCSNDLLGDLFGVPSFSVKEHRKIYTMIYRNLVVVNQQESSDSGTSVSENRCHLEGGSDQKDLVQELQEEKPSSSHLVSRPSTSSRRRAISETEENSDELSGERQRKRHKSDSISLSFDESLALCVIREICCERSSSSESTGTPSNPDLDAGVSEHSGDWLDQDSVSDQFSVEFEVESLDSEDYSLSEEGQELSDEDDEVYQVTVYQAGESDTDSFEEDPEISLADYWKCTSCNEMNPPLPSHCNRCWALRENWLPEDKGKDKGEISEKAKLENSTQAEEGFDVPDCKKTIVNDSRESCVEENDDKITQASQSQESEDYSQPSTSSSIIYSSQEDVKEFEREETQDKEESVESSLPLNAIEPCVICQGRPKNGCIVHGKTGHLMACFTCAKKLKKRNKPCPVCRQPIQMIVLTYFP

C[C@@H](Nc1nc(C(=O)O)nc2nc(N3CCOC[C@H]3c3ccccc3)n(C[C@H]3CC[C@H](C)CC3)c12)C1CCC1
IC50 [1]: 1100 nM
Ratio IC50 [2]: 5500

COCC(C)c1nc2cc(-c3noc(=O)[nH]3)nc(-c3cncc(Cl)c3)c2n1C[C@H]1CC[C@H](C)CC1 (stereo partly drawn)
logD [3]: 2.03
CL free [4]: 171 mL/min/kg
MRT [5]: 1.2 h
IC50 [6]: 1110 nM

C[C@@H](Nc1nc(-c2nnc[nH]2)nc2nc(N3CCOC[C@H]3c3ccccc3)n(C[C@H]3CC[C@H](C)CC3)c12)C1CCC1
IC50 [7]: 11 nM
IC50 [1]: 724 nM
Ratio IC50 [2]: 66

C[C@@H](Nc1nc(CO)nc2nc(N3CCOC[C@H]3c3ccccc3)n(C[C@H]3CC[C@H](C)CC3)c12)C1CCC1
IC50 [1]: 4100 nM
Ratio IC50 [2]: 52

C[C@H]1CC[C@H](Cn2c(N3CCC[C@H]3C(F)(F)F)nc3cc(-c4noc(=O)[nH]4)nc(-c4cncc(Cl)c4)c32)CC1
logD [3]: 2.85
CL free [4]: 1500 mL/min/kg
MRT [5]: 2.5 h
CL free [8]: 11233 mL/min/kg
MRT [9]: 0.35 h
bioavailability [10]: 11%
IC50 [6]: 99 nM

CC(C)c1ccnc(-c2nc3nc(C(=O)O)nc(N[C@H](C)C4CCC4)c3n2Cc2ccc(C(F)(F)F)cc2)c1
IC50 [7]: 4 nM
logD [3]: 2.66

C[C@H]1CC[C@H](Cn2c(N3CCOC[C@H]3c3ccccc3)nc3nc(-c4noc(=O)[nH]4)nc(-c4cccc(Cl)c4)c32)CC1
IC50 [7]: 1.3 nM
logD [3]: 3.15
IC50 [1]: 113 nM
IC50 [6]: 723 nM

C[C@@H](Nc1nc(-c2nc(=O)n(C)[nH]2)nc2nc(N3CCOC[C@H]3c3ccccc3)n(C[C@H]3CC[C@H](C)CC3)c12)C1CCC1
IC50 [7]: 1.5 nM
IC50 [1]: 203 nM
Ratio IC50 [2]: 135

CC(C)c1ccnc(-c2nc3nc(C(=O)O)nc(N[C@H](C)C4CCC4)c3n2Cc2ccc(OC(F)(F)F)c(F)c2)c1
logD [3]: 2.84

Cc1cccc(-c2nc3nc(C(=O)O)nc(NCC4CC4)c3n2CC2CCCCC2)c1
IC50 [7]: 8400 nM
logD [3]: 3.7

C[C@@H](Nc1nc(C(=O)O)nc2nc(-c3ccc4sccc4c3)n(Cc3ccc(Cl)cc3)c12)C1CC1
logD [3]: 2.2

CC(C)c1ccnc(-c2nc3nc(C(=O)O)nc(N[C@H](C)C4CCC4)c3n2Cc2ccc(OC(F)(F)F)cc2)c1
IC50 [7]: 12 nM
logD [3]: 2.81

C[C@@H](Nc1nc(C(=O)O)nc2nc(N[C@@H](CO)c3ccccc3)n(Cc3ccc(C(F)(F)F)cc3)c12)C1CCC1
IC50 [7]: 1.5 nM
logD [3]: 1.94

COCC(C)c1nc2cc(-c3noc(=O)[nH]3)nc(-c3cncc(Cl)c3)c2n1[C@H](C)[C@H]1CC[C@H](C)CC1 (stereo partly drawn)
logD [3]: 2.59
CL free [4]: 59 mL/min/kg
MRT [5]: 3.8 h
bioavailability [11]: 54%
CL free [8]: 1150 mL/min/kg
MRT [9]: 0.4 h
bioavailability [10]: 46%
IC50 [6]: 222 nM

C[C@H]1CC[C@H](Cn2c(N3CCOC[C@H]3c3ccccc3)nc3nc(-c4noc(=O)[nH]4)nc(-c4ccccc4)c32)CC1
logD [3]: 2.72
IC50 [1]: 632 nM
IC50 [6]: 6370 nM

CCO[C@@H](c1nc2cc(-c3noc(=O)[nH]3)nc(-c3cncc(Cl)c3)c2n1[C@H](C)[C@H]1CC[C@H](C)CC1)C1CC1
logD [3]: 2.75
CL free [4]: 323 mL/min/kg
MRT [5]: 3.1 h
bioavailability [11]: 93%
CL free [8]: 2060 mL/min/kg
MRT [9]: 0.5 h
bioavailability [10]: 54%
IC50 [6]: 31 nM

C[C@@H]1COC[C@@H](C)N1c1nc2cc(-c3noc(=O)[nH]3)nc(-c3cncc(Cl)c3)c2n1C[C@H]1CC[C@H](C)CC1
logD [3]: 2.32
CL free [4]: 131 mL/min/kg
MRT [5]: 3.9 h
CL free [8]: 2166 mL/min/kg
MRT [9]: 0.3 h
bioavailability [10]: 9%
IC50 [6]: 248 nM

Cc1cncc(-c2nc(-c3noc(=O)[nH]3)nc3nc(N4CCOC[C@H]4c4ccccc4)n(C[C@H]4CC[C@H](C)CC4)c23)c1
logD [3]: 2.17
IC50 [1]: 3670 nM
IC50 [6]: 7800 nM

CC(C)c1ccnc(-c2nc3nc(C(=O)O)nc(N[C@H](C)C4CCC4)c3n2Cc2ccc(C(F)(F)F)s2)c1
logD [3]: 2.67

COCC(c1ccccc1)c1nc2cc(-c3noc(=O)[nH]3)nc(-c3cncc(Cl)c3)c2n1C[C@H]1CC[C@H](C)CC1 (mixture of isomers)
logD [3]: 2.62
IC50 [6]: 451 nM

C[C@@H](Nc1nc(-c2n[nH]c(=O)o2)nc2nc(N3CCOC[C@H]3c3ccccc3)n(C[C@H]3CC[C@H](C)CC3)c12)C1CCC1
IC50 [7]: 2 nM
IC50 [1]: 140 nM
Ratio IC50 [2]: 70

CC(C)c1ccnc(-c2nc3nc(C(=O)O)nc(N[C@H](C)C4CCC4)c3n2C[C@H]2CC[C@@H](C)CC2)c1
IC50 [7]: 348 nM
logD [3]: 2.7

C[C@H]1CC[C@H](Cn2c(N3CCOC[C@H]3c3ccccc3)nc3cc(-c4noc(=O)[nH]4)nc(-c4cncc(Cl)c4)c32)CC1
IC50 [7]: 0.61 nM
logD [3]: 2.69
IC50 [1]: 31 nM
CL free [4]: 1607 mL/min/kg
MRT [5]: 1.7 h
bioavailability [11]: 39%
CL free [8]: 20745 mL/min/kg
MRT [9]: 0.4 h
bioavailability [10]: 5%
IC50 [6]: 93 nM

C[C@@H](Nc1nc(C(=O)O)nc2nc(N3CCOC[C@H]3c3ccccc3)n(Cc3ccc(C(F)(F)F)cc3)c12)C1CCC1
IC50 [7]: 1.8 nM
logD [3]: 2.32

C[C@@H](Nc1nc(C(=O)O)nc2nc(NC3CCCCC3)n(Cc3ccc(C(F)(F)F)cc3)c12)C1CCC1
logD [3]: 2.62

C[C@H]1CC[C@H](Cn2c(N3CCC[C@H]3CF)nc3cc(-c4noc(=O)[nH]4)nc(-c4cncc(Cl)c4)c32)CC1
logD [3]: 2.42
CL free [4]: 920 mL/min/kg
MRT [5]: 1.5 h
bioavailability [11]: 37%
CL free [8]: 3244 mL/min/kg
MRT [9]: 0.25 h
bioavailability [10]: 7%
IC50 [6]: 169 nM

C[C@@H](Nc1nc(C(=O)O)nc2nc(N3CCOC[C@@H]3c3ccccc3)n(Cc3ccc(C(F)(F)F)cc3)c12)C1CCC1
logD [3]: 2.34

CC(C)c1ccnc(-c2nc3nc(C(=O)O)nc(N[C@H](C)C4CCC4)c3n2C[C@H]2CC[C@H](C)CC2)c1 (mixture of isomers)
IC50 [7]: 2.2 nM
logD [3]: 2.94

CCOC(c1nc2cc(-c3noc(=O)[nH]3)nc(-c3cncc(Cl)c3)c2n1C[C@H]1CC[C@H](C)CC1)C1CC1 (stereo partly drawn)
logD [3]: 2.34
CL free [4]: 206 mL/min/kg
MRT [5]: 1.6 h
IC50 [6]: 466 nM

C[C@H]1CC[C@H](Cn2c(N3CCOC[C@H]3c3ccccc3)nc3nc(-c4noc(=O)[nH]4)nc(-c4cncc(Cl)c4)c32)CC1
logD [3]: 2.55
IC50 [1]: 401 nM
IC50 [6]: 1970 nM

C[C@@H](Nc1nc(-c2n[nH]c(=O)n2C)nc2nc(N3CCOC[C@H]3c3ccccc3)n(C[C@H]3CC[C@H](C)CC3)c12)C1CCC1
IC50 [7]: 15 nM
IC50 [1]: 990 nM
Ratio IC50 [2]: 66

CC(C)c1cccc(-c2nc3nc(C(=O)O)nc(N[C@H](C)C4CCC4)c3n2Cc2ccc(C(F)(F)F)cc2)c1
IC50 [7]: 15 nM
logD [3]: 2.86

Reference: ChEMBL document CHEMBL5029175, “Discovery of MK-4688: an Efficient Inhibitor of the HDM2-p53 Protein-Protein Interaction” (J Med Chem, 2021)
